Measured values reported in US8569315B2, “Synergistic antimicrobial composition” (priority 2009, dated 2013).

Legend:
Type in all cases: cell-based
Calothrix parientina = assay: Algal efficacy testing, modified ASTM 5589, paint film; conditions: for Total conc: total biocide in paint chosen as minimum inhibitory concentration, dry film; for Total conc / % inhibition: 3 weeks
Protocol: (§1) Sample preparation: Samples of white acrylic latex paint free of biocides were prepared in 50 ml aliquots. Each biocide was post added to give the necessary active ingredient concentration in the paint. The total biocides concentrations tested were 750, 1500, 2500 and 5000 ppm. After biocides addition, each sample was hand mixed for a minimum of 30 sec, followed by a 3 min run on the paint shaker (RED DEVIL). Each of the paint samples as well as a control sample (containing no biocide) were used to prepare films on black plastic-vinyl chloride/acetate copolymer panels (LENETA, Mahwah, N.J.) using a 3 mil bird bar applicator. The panels were thoroughly dried for 5 days avoiding direct exposure to sunlight. Square discs (15 mm^2) were cut out from each panel and were used as the substrate for fungal and algal efficacy tests. This sample size allowed for an agar border when the sample disc was placed into the well of the test plate.
(§2) The appropriate media (BOLD'S 3N for Chlorophytes, BG-11 for Cyanobacteria, and PDA for fungi) were used to support microbial growth. The test plates were maintained at room temp (25° C.-26° C.), in a cycled light-dark environment, for 3 weeks for algae. Plates for fungal challenge tests were maintained at 30 C for three weeks. At the end of incubation period the samples were scored for percent area covered by visible microbial growth.
(§3) ASTM 5589 is a standard accelerated test method for determining resistance of various coatings (including paints) to algal defacement. To accommodate for high-throughput screening, this method was scaled down from petri plates to 12-well plates. A single coupon was placed with a pair of sterile forceps at the center of the agar plug (on top) with the painted surface facing upwards. Each well was inoculated with 150 μl of organism (1×10^6 cfu/ml) making sure that the whole surface (paint film as well as the agar surrounding it) was evenly covered. The plates were incubated at room temp (25° C.-26° C.) with cyclic exposure to light (OTT-Lite model # OTL4012P, 40 Watt, 26 KLumen) and dark phases, for a period of three weeks. The total area covered was evaluated at the end of each week after the second week according to percent area covered in 5% increments. While rating the plates, notations were made for zones of inhibition.
(§4) The SI is calculated based on F. C. Kull et.

[1] = system: Chlorella sp. UTEX + Chlorella kessleri; assay: as above; conditions: for Total conc: total biocide in paint chosen as minimum inhibitory concentration, dry film; for Total conc / % inhibition: 3 weeks
Protocol: as §1, §2, §3, §4

Gleocapsa sp. = assay: as above; conditions: for Total conc: total biocide in paint chosen as minimum inhibitory concentration, dry film; for Total conc / % inhibition: 3 weeks
Protocol: as §1, §2, §3, §4

Nostoc commune = assay: as above; conditions: for Total conc: total biocide in paint chosen as minimum inhibitory concentration, dry film; for Total conc / % inhibition: 3 weeks
Protocol: as §1, §2, §3, §4

Oscillatoria sp. = assay: as above; conditions: for Total conc: total biocide in paint chosen as minimum inhibitory concentration, dry film; for Total conc / % inhibition: 3 weeks
Protocol: as §1, §2, §3, §4

[2] = system: Trentepohlia aurea + Trentepohlia odorata; assay: as above; conditions: for Total conc: total biocide in paint chosen as minimum inhibitory concentration, dry film; for Total conc / % inhibition: 3 weeks; for % inhibition: total conc 1500 ppm in paint
Protocol: as §1, §2, §3, §4

Alternaria alternata = assay: Fungal efficacy testing, modified ASTM 5590, paint film; conditions: for Total conc: total biocide in paint chosen as minimum inhibitory concentration, dry film; for Total conc / % inhibition: 3 weeks
Protocol: as §1, §2
(§5) ASTM 5590 is a standard accelerated test method for determining resistance of various coatings (including paints) to fungal defacement. To accommodate for high-throughput screening, this method was scaled down from petri plates to 12-well plates. To set up the test, an agar plug was placed at the bottom of each well of the sterile 12-well plate. A single coupon was placed with a pair of sterile forceps at the center of the agar plug (on top) with the painted surface facing upwards. Each well was inoculated with 150 μl of organism (1×10^6 cfu/ml) making sure that the whole surface (paint film as well as the agar surrounding it) was evenly covered. The plates were incubated at 30° C. in presence of moisture, for a period of three weeks. The total percent area covered was evaluated and recorded at the end of each week after the 2nd week and recorded in increments of 5%.
as §4

Aspergillus niger = assay: as above; conditions: for Total conc: total biocide in paint chosen as minimum inhibitory concentration, dry film; for Total conc / % inhibition: 3 weeks; for % inhibition: total conc 1500 ppm in paint
Protocol: as §1, §2, §5, §4

Aureobasidium pullulans = assay: as above; conditions: for Total conc: total biocide in paint chosen as minimum inhibitory concentration, dry film; for Total conc / % inhibition: 3 weeks
Protocol: as §1, §2, §5, §4

Cladosporium herbarum = assay: as above; conditions: for Total conc: total biocide in paint chosen as minimum inhibitory concentration, dry film; for Total conc / % inhibition: 3 weeks
Protocol: as §1, §2, §5, §4

Penicillium funiculosum = assay: as above; conditions: for Total conc: total biocide in paint chosen as minimum inhibitory concentration, dry film; for Total conc / % inhibition: 3 weeks
Protocol: as §1, §2, §5, §4

Trichoderma viride = assay: as above; conditions: for Total conc: total biocide in paint chosen as minimum inhibitory concentration, dry film; for Total conc / % inhibition: 3 weeks
Protocol: as §1, §2, §5, §4

Stachybotris chartarum = assay: as above; conditions: for Total conc: total biocide in paint chosen as minimum inhibitory concentration, dry film
Protocol: as §1, §2, §5, §4

[3] = total conc 750 ppm in paint, Table 3
[4] = total conc 1500 ppm in paint, Table 3
[5] = total conc 2500 ppm in paint, Table 3
[6] = total conc 2500 ppm in paint, Table 4
[7] = total conc 1500 ppm in paint, Table 4
[8] = total conc 750 ppm in paint, Table 4
[9] = total conc 1500 ppm in paint, Table 1
[10] = total conc 1500 ppm in paint, Table 2

For `CCOc1nc(F)cc2nc(S(=O)(=O)Nc3c(Cl)cccc3Cl)nn12` [Diclosulam], the Total conc (Calothrix parientina; Table 3) was 750 ppm, the “% inhibition” value (Calothrix parientina; [3]) was 80% and the Total conc ([1]; Table 3) was 750 ppm. The “% inhibition” value [1, 3] was 75%, the Total conc (Gleocapsa sp.; Table 3) was 1500 ppm and the “% inhibition” value (Gleocapsa sp.; [4]) was 60%. For the same molecule, the Total conc (Nostoc commune; Table 3) was 2500 ppm, the “% inhibition” value (Nostoc commune; [5]) was 75% and the Total conc (Oscillatoria sp.; Table 3) was 750 ppm. The “% inhibition” value (Oscillatoria sp.; [3]) was 80%, the Total conc ([2]; Table 3) was 1500 ppm and the “% inhibition” value ([2]; Table 3) was 80%. The Total conc (Alternaria alternata; Table 4) was 2500 ppm, the “% inhibition” value (Alternaria alternata; [6]) was 0% and the Total conc (Aspergillus niger; Table 4) was 1500 ppm. For the same molecule, the “% inhibition” value (Aspergillus niger; Table 4) was 80%, the Total conc (Aureobasidium pullulans; Table 4) was 1500 ppm and the “% inhibition” value (Aureobasidium pullulans; [7]) was 35%. For the same molecule, the Total conc (Cladosporium herbarum; Table 4) was 2500 ppm, the “% inhibition” value (Cladosporium herbarum; [6]) was 80% and the Total conc (Penicillium funiculosum; Table 4) was 2500 ppm. For the same molecule, the “% inhibition” value (Penicillium funiculosum; [6]) was 45%, the Total conc (Trichoderma viride; Table 4) was 750 ppm and the “% inhibition” value (Trichoderma viride; [8]) was 80%.
`Cc1ccn2nc(S(=O)(=O)Nc3c(F)cccc3F)nc2n1` [Flumetsulam] was tested, and the inhibition at 2500 ppm (Calothrix parientina; 504 h) was 90%, the Total conc (Calothrix parientina; Table 1) was 2500 ppm and the inhibition at 2500 ppm ([1]; 504 h) was 80%. It also gave a Total conc ([1]; Table 1) of 2500 ppm, an inhibition at 1500 ppm (Gleocapsa sp.; 504 h) of 90% and a Total conc (Gleocapsa sp.; Table 1) of 1500 ppm. It also gave an inhibition at 1500 ppm (Nostoc commune; Nostoc commune, 504 h) of 85%, a Total conc (Nostoc commune; Table 1) of 1500 ppm and an inhibition at 1500 ppm (Oscillatoria sp.; 504 h) of 80%. For the same molecule, the Total conc (Oscillatoria sp.; Table 1) was 1500 ppm, the inhibition at 1500 ppm ([2]; 504 h) was 85% and the Total conc ([2]; Table 1) was 1500 ppm. It also gave an inhibition at 2500 ppm (Alternaria alternata; Alternaria alternata, 504 h) of 90%, a Total conc (Alternaria alternata; Table 2) of 2500 ppm and an inhibition at 2500 ppm (Aspergillus niger; Aspergillus niger, 504 h) of 40%. It also gave a Total conc (Aspergillus niger; Table 2) of 2500 ppm, an inhibition at 2500 ppm (Aureobasidium pullulans; Aureobasidium pullulans, 504 h) of 90% and a Total conc (Aureobasidium pullulans; Table 2) of 2500 ppm. The inhibition at 1500 ppm (Cladosporium herbarum; Cladosporium herbarum, 504 h) was 85%, the Total conc (Cladosporium herbarum; Table 2) was 1500 ppm and the inhibition at 1500 ppm (Penicillium funiculosum; Talaromyces funiculosus, 504 h) was 80%. For the same molecule, the Total conc (Penicillium funiculosum; Table 2) was 1500 ppm, the inhibition at 2500 ppm (Stachybotris chartarum; 504 h) was 70% and the Total conc (Stachybotris chartarum; 3 weeks, Table 2) was 2500 ppm. For the same molecule, the inhibition at 2500 ppm (Trichoderma viride; Trichoderma viride, 504 h) was 70% and the Total conc (Trichoderma viride; Table 2) was 2500 ppm.
`CCCCNC(=O)OCC#CI` [IPBC, 3-iodo-2-propynyl-butylcarbamate] was tested, and the Total conc (Calothrix parientina; Table 1) was 1500 ppm, the Total conc (Calothrix parientina; Table 3) was 750 ppm and the “% inhibition” value (Calothrix parientina; [3]) was 80%. The “% inhibition” value (Calothrix parientina; [9]) was 80%, the Total conc ([1]; Table 1) was 2500 ppm and the Total conc ([1]; Table 3) was 2500 ppm. For the same molecule, the “% inhibition” value ([1]; total conc 2500 ppm in paint, Table 1) was 80%, the “% inhibition” value [1, 5] was 80% and the Total conc (Gleocapsa sp.; Table 1) was 750 ppm. For the same molecule, the Total conc (Gleocapsa sp.; Table 3) was 2500 ppm, the “% inhibition” value (Gleocapsa sp.; total conc 750 ppm in paint, Table 1) was 80% and the “% inhibition” value (Gleocapsa sp.; [5]) was 50%. The Total conc (Nostoc commune; Table 1) was 1500 ppm, the Total conc (Nostoc commune; Table 3) was 1500 ppm and the “% inhibition” value (Nostoc commune; [9]) was 80%. The “% inhibition” value (Nostoc commune; [4]) was 80%, the Total conc (Oscillatoria sp.; Table 1) was 1500 ppm and the Total conc (Oscillatoria sp.; Table 3) was 2500 ppm. The “% inhibition” value (Oscillatoria sp.; [9]) was 80%, the “% inhibition” value (Oscillatoria sp.; [5]) was 80% and the Total conc ([2]; Table 1) was 1500 ppm. The Total conc ([2]; Table 3) was 1500 ppm, the “% inhibition” value ([2]; Table 1) was 80% and the “% inhibition” value ([2]; Table 3) was 80%. For the same molecule, the Total conc (Alternaria alternata; Table 2) was 1500 ppm, the Total conc (Alternaria alternata; Table 4) was 2500 ppm and the “% inhibition” value (Alternaria alternata; [10]) was 85%. The “% inhibition” value (Alternaria alternata; [6]) was 50%, the Total conc (Aspergillus niger; Table 2) was 1500 ppm and the Total conc (Aspergillus niger; Table 4) was 1500 ppm. For the same molecule, the “% inhibition” value (Aspergillus niger; Table 2) was 60%, the “% inhibition” value (Aspergillus niger; Table 4) was 85% and the Total conc (Aureobasidium pullulans; Table 2) was 1500 ppm. For the same molecule, the Total conc (Aureobasidium pullulans; Table 4) was 750 ppm, the “% inhibition” value (Aureobasidium pullulans; [8]) was 60% and the “% inhibition” value (Aureobasidium pullulans; [10]) was 90%. The Total conc (Cladosporium herbarum; Table 2) was 1500 ppm, the Total conc (Cladosporium herbarum; Table 4) was 1500 ppm and the “% inhibition” value (Cladosporium herbarum; [10]) was 90%. The “% inhibition” value (Cladosporium herbarum; [7]) was 80%, the Total conc (Penicillium funiculosum; Table 2) was 1500 ppm and the Total conc (Penicillium funiculosum; Table 4) was 1500 ppm. For the same molecule, the “% inhibition” value (Penicillium funiculosum; [10]) was 90%, the “% inhibition” value (Penicillium funiculosum; [7]) was 70% and the Total conc (Stachybotris chartarum; 3 weeks, Table 2) was 2500 ppm. For the same molecule, the “% inhibition” value (Stachybotris chartarum; total conc 2500 ppm in paint, 3 weeks, Table 2) was 65%, the Total conc (Trichoderma viride; Table 2) was 1500 ppm and the Total conc (Trichoderma viride; Table 4) was 1500 ppm. For the same molecule, the “% inhibition” value (Trichoderma viride; [10]) was 75% and the “% inhibition” value (Trichoderma viride; [7]) was 85%.
